# Test results published in PMC5651845, “A New Generation of Arachidonic Acid Analogues as Potential Neurological Agent Targeting Cytosolic Phospholipase A2” (Scientific Reports, 2017).
# Columns and labels:
# [1] = target: T1, sPLA2, human recombinant type V (Homo sapiens, UniProt P39877); test: EnzChek phospholipase A2 fluorogenic assay (selectivity) with sPLA2; format: biochemical; conditions: 10 μM
# T1 construct: purchased Cayman Chemical 10009563
# T1 sequence (P39877 21-138): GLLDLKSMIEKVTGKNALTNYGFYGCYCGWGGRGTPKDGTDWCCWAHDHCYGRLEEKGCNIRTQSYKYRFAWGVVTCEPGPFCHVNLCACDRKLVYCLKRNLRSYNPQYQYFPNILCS
# Procedure: To further explore their selectivity towards cPLA2, 10 μM of 2g and 2i were evaluated for their inhibition against recombinant sPLA2 using the fluorogenic PLA2 assay (Fig. 3C).
# The assay was conducted as described above. Instead of adding cPLA2, it was replaced by sPLA2. 48 μL of 1X phospholipase A2 reaction buffer was added into each well of a 96-wells plate. This was followed by addition of 1 μL of sPLA2, human recombinant type V (10009563, Cayman Chemical) and 1 μL of 1 mM of the respective compound or thioetheramide-PC (62750, Cayman Chemical) dissolved in DMSO. The final concentration of the test compound achieved is 10 μM. The reaction was initiated by adding 50 μL of the substrate solution and incubating at room temperature for 1 h. Fluorescence was measured using a Varioskan plate reader by exciting at 485 nm, while fluorescence emission was detected at 515 nm. Positive control was performed when 1 μL of test compound was replaced by vehicle DMSO. % activity was expressed as the mean value of duplicate wells from four experiments. % activity was calculated by the following formula:2 %activity=fluorescenceoftestedwell−background/fluorescenceofpostivecontrol−background
# [2] = target: T1, sPLA2, human recombinant type V; parameters: method as in PMID 2303420; conditions: cited from earlier work
# recombinant cPLA2 [3] = target: T2, recombinant cPLA2 (Homo sapiens, UniProt P47712); test: EnzChek phospholipase A2 fluorogenic assay (% activity) at 10 μM; format: biochemical; conditions: 10 μM compound
# T2 construct: purchased US Biological P4074-03R
# T2 sequence (P47712 1-749): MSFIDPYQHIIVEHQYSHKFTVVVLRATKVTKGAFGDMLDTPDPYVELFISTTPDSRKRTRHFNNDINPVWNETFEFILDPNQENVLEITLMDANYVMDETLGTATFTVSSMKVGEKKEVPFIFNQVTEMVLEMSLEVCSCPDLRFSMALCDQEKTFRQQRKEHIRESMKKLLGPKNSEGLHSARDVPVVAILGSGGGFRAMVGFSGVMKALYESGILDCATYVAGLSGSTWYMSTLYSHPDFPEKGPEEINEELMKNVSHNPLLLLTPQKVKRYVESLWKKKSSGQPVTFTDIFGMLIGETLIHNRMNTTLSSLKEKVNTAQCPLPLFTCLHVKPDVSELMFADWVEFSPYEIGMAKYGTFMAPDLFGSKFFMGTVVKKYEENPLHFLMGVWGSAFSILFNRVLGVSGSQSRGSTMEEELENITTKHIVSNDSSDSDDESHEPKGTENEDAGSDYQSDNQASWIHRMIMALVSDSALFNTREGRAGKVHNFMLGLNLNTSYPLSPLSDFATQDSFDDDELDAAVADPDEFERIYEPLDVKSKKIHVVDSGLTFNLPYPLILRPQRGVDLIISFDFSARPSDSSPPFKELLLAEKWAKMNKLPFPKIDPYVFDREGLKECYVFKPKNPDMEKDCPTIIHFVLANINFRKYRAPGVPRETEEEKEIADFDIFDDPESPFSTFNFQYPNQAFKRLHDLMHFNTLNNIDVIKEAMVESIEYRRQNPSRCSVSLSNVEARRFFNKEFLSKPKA
# Procedure: The compounds were evaluated with a fluorogenic PLA2 assay kit (EnzChek® Phospholipase A2 Assay Kit, Catalog No: E10217) at a standard 10 μM concentration. Potential inhibitors were determined by their ability to lower cPLA2 activity to a greater extent than 1a.
# The assay was conducted according to the manufacturer’s instruction (E10217, Molecular Probes) with slight modification. Briefly, substrate solution was separately prepared by mixing 5 μL of DOPG, 5 μL of DOPC and 5 μL of substrate respectively in 1.5 mL of 1X phospholipase A2 reaction buffer. The mixture was vortexed vigorously for 3 min before allowing to stand at room temperature for 1 h. 48 μL of 1X phospholipase A2 reaction buffer were added into each well of a 96-wells plate. This was followed by addition of 1 μL of recombinant cPLA2 (P4074-03R, US Biological) and 1 μL of 1 mM of the respective compound dissolved in DMSO. The final concentration of the test compound achieved is 10 μM. The reaction was initiated by adding 50 μL of the substrate solution and incubating at room temperature for 1 h. Fluorescence was measured using a Varioskan plate reader (Thermo Scientific, MA, USA) by exciting at 485 nm, while fluorescence emission was detected at 515 nm. Positive control was performed when 1 μL of test compound was replaced by vehicle DMSO. % activity was expressed as the mean value of duplicate wells from three experiments. % activity was calculated by the following formula1 %activity=fluorescenceoftestedwell−background/fluorescenceofpostivecontrol−background
# recombinant cPLA2 [4] = target: T2, recombinant cPLA2; test: EnzChek phospholipase A2 fluorogenic assay (IC50); format: biochemical
# Procedure: The assay was conducted as described above. Instead of adding a fixed concentration of the test compound, various concentrations of compound were reconstituted in DMSO. 48 μL of 1X phospholipase A2 reaction buffer were added into each well of a 96-wells plate. This was followed by addition of 1 μL of recombinant cPLA2 (P4074-03R, US Biological) and 1 μL of the respective concentration of the test compound dissolved in DMSO. The reaction was initiated by adding 50 μL of the substrate solution and incubating at room temperature for 1 h. Fluorescence was measured using a Varioskan plate reader by exciting at 485 nm, while fluorescence emission was detected at 515 nm. Positive control was performed when 1 μL of test compound was replaced by vehicle DMSO. IC50 was expressed as the mean value of duplicate wells from three experiments.
# BV-2 cells = test: MTS cell proliferation assay on BV-2 cells; format: cell-based, murine; conditions: 10 μM, 48 h and 72 h, vs vehicle control
# Procedure: (§1) To explore whether the inhibitors are cytotoxic, MTS assay were conducted on BV-2 cells, a murine microglial cell line derived from post-natal mouse cerebella, and HEK293T cells that are derived from human embryonic kidney. Both cell types were treated with 10 μM of 1a, 2g and 2i for 48 h and 72 h (Fig. 3A,B). Dimethyl sulfoxide (DMSO) vehicle control was also included as the compounds were dissolved in DMSO.
# (§2) Cells were plated on a 96-wells plate and grown for 24 h to a density of 8000 cells per well for both HEK293T and BV-2 cells. Cells were cultured at 37 °C under a 5% CO2 environment in 100 μL of culture medium. Thereafter, the compound of interest dissolved in culture medium at a concentration of 10 μM was replaced into each well. DMSO was added as vehicle in the control group. 3 biological replicates were performed. The plates were then incubated at 37 °C with 5% CO2 for 48 h and 72 h. At each individual time point, 20 μL of CellTiter 96® AQueous One Solution (MTS reagent) was added into each well and re-incubated at 37 °C with 5% CO2 without light for 3 h. Colorimetric readings were taken using a Varioskan plate reader at 490 nm and analyzed. Three independent biological repeats with four technical replicates were performed.
# HEK293T cells = test: MTS cell proliferation assay on HEK293T cells; format: cell-based, human; conditions: 10 μM, 48 h and 72 h, vs vehicle control
# Procedure: as §1, §2
reduction of sPLA2 activity [1] [%],inhibition at 10 µM (recombinant cPLA2 [3]) [%],"remaining activity at 10 µM (recombinant cPLA2 [3]; 1 h, room temperature) [%]",IC50 (recombinant cPLA2 [4]) [µM],fold stronger cPLA2 inhibition than 1a (from IC50) (recombinant cPLA2 [4]; relative to 1a) [fold],sPLA2 activity ([1]; relative to DMSO control) [%],Compound,IC50 [2] [nM],cytotoxicity (MTS) on BV-2 cells (BV-2 cells),cytotoxicity (MTS) on HEK293T cells (HEK293T cells)
62,,,,,,"CCCCCCCCCCCCCCCCSC[C@H](COP(=O)(O)OCC[N+](C)(C)C)NC(=O)CCCCCCCCCCCCCCC [Thioetheramide-PC, reference compound]",2000,,
,84.5,15.5 ± 0.3,5.3 ± 0.3,3,184,CCCCC/C=C\C/C=C\C/C=C\C/C=C\CCCCC(=O)NCCCCC(=O)O [2g],,no significant toxic effects,no significant toxic effects
